Assay results as given in article PMC4904246 (Journal of Medicinal Chemistry, 2016).
≈ marks a conversion by molar mass, not a printed value. Marks after values point to notes of the source that are not given here.

Assays:
PvDHODH [1] = target: T1, PvDHODH (Plasmodium vivax, UniProt A5K1N1); conditions: read-out: PvDHODH IC50; previous reports; 2 from 15, 3 from 16; cited from earlier work
T1 sequence (A5K1N1 160-572): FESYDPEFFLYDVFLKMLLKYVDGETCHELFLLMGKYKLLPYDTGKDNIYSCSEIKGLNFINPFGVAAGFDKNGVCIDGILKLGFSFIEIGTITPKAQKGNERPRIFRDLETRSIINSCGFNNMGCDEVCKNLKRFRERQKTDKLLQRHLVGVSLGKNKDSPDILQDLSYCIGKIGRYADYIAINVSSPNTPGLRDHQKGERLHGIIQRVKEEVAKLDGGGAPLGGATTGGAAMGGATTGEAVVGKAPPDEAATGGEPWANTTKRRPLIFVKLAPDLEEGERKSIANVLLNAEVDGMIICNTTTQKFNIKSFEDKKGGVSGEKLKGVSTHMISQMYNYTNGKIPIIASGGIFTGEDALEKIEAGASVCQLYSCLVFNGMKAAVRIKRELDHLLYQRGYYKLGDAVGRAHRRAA

[2] = scaled; cited from earlier work
[3] = pH 6.5, 30 min at room temperature; cited from earlier work
[4] = kinetic aqueous solubility by nephelometry; format: physicochemical; conditions: pH 6.5 phosphate buffer, pH 6.5
[5] = in vitro metabolism, human liver microsomes; format: in vitro ADME; conditions: human, pooled human liver microsomes
dog DHODH = dog DHODH (Canis lupus familiaris, UniProt A0A8I3MWX2); experiment: biochemical
[6] = plasma protein binding by ultracentrifugation, human plasma; format: in vitro ADME
[7] = plasma protein binding by ultracentrifugation, rat plasma; format: in vitro ADME
[8] = plasma protein binding by ultracentrifugation, mouse plasma; format: in vitro ADME; conditions: for PPB mouse (% bound): mouse plasma, ultracentrifugation
[9] = tested on: P. falciparum Pf3D7_0087/N9 parasites; conditions: for AUCED90: total blood AUC at the ED90, Day 1 pharmacokinetic data, QD, only two dose levels
in vivo = conditions: Sprague-Dawley, rat, plasma, iv
PvDHODH [10] = target: T1, PvDHODH; conditions: PvDHODH IC50 higher than PfDHODH IC50
hERG K+ channel = hERG K+ channel (Homo sapiens, UniProt Q12809); conditions: SCID study
[11] = approximate
hDHODH = hDHODH (Homo sapiens, UniProt Q02127); conditions: read-out: hDHODH IC50
Sequence of hDHODH (Q02127 31-395 limits assumed): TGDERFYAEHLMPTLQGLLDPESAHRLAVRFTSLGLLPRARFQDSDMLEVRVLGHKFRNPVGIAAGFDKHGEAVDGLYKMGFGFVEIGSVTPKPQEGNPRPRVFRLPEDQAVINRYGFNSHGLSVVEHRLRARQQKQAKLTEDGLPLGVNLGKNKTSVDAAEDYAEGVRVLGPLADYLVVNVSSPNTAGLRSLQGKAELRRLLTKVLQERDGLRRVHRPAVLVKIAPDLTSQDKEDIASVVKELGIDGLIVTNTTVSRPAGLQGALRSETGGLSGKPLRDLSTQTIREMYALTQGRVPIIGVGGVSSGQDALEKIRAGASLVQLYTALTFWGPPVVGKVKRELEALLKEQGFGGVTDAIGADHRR

Sequence of dog DHODH (A0A8I3MWX2 1-406): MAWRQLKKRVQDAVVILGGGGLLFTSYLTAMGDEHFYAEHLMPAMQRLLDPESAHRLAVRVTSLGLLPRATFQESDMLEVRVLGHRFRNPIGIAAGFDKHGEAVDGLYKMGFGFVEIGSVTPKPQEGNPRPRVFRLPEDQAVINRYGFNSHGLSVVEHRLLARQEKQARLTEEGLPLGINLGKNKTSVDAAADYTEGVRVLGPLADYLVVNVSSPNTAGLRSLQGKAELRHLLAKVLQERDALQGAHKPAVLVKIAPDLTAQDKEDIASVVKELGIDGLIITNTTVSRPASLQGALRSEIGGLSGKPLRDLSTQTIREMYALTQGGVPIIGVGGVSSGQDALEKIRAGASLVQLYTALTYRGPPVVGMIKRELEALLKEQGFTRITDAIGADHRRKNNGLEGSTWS
Sequence of hERG K+ channel (Q12809 whole entry): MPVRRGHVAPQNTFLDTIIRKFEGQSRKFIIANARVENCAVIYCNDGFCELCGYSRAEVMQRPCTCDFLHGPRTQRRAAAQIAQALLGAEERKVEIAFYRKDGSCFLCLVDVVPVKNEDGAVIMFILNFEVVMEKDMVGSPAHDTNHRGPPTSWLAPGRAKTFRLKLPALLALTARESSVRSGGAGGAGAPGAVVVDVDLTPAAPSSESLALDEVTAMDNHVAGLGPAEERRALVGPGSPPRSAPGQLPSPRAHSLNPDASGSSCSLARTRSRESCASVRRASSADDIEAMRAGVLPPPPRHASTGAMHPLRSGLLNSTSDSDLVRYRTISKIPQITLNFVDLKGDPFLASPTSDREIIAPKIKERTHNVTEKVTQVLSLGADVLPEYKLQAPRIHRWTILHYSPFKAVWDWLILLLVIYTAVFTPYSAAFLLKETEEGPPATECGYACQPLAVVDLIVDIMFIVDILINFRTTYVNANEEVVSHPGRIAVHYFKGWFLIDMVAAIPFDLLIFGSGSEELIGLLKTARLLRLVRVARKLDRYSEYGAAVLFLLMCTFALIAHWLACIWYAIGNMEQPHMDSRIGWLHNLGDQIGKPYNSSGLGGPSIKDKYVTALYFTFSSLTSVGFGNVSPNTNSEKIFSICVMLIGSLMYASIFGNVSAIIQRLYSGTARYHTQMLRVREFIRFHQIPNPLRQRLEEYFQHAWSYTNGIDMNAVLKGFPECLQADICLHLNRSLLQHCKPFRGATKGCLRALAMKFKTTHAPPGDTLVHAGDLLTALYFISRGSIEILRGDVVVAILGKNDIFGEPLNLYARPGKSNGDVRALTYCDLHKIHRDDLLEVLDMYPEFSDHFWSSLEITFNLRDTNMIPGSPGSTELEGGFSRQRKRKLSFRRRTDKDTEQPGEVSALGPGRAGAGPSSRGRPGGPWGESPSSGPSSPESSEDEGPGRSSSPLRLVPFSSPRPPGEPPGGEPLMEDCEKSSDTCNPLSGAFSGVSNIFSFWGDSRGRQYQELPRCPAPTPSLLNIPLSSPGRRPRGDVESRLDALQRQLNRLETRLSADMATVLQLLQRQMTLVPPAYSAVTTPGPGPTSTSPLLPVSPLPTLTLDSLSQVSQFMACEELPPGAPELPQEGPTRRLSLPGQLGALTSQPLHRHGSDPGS

SMILES | solubility kinetic at 30 min [4] [µg/mL] | CLint scaled at 1 μM [5] [mL/min/kg] | also measured
Cc1cc(Nc2ccc(C(F)(F)F)cc2)n2ncnc2n1 [Compound 3, (5-methyl[1,2,4]triazolo[1,5-a]pyrimidin-7-yl)(4-trifluoromethylphenyl)amine] | – | – | IC50 (PvDHODH [1]): 2.6 µM; predicted in vivo CLint human [2]: 6.2/ND/ND mL/min/kg; kinetic solubility pH 6.5 [3]: 6.3–12.5 μg/mL
Cc1cc(NC2CCc3cc(Cl)ccc3C2)n2nc(C(C)(F)F)nc2n1 (centres unmarked) [Compound 7, 2-(1,1-Difluoroethyl)-N-(6-chloro-1,2,3,4-tetrahydronaphthalen-2-yl)-5-methyl-[1,2,4]triazolo[1,5-a]pyrimidin-7-amine] | 3.1 to 6.3 (≈ 8.2 to 16.7 µM) | < 5.8 | IC50 (dog DHODH): > 100 µM; PPB human (% bound) [6]: 98.8 % bound; PPB rat (% bound) [7]: 99.2 % bound; mouse PPB (% bound) ([8]; approximation based on rat and human plasma protein binding data): 99.2 ^c % bound; AUCED90 [9]: >23 μM·h/day; clearance (in vivo): 3.5 mL/min/kg; difference of IC50 P. vivax DHODH versus PfDHODH (PvDHODH [10]): 5–8 fold
Cc1cc(N[C@H]2CCc3ccc(Cl)cc3C2)n2nc(C(C)(F)F)nc2n1 [Compound 9, (S)-N-(7-Chloro-1,2,3,4-tetrahydronaphthalen-2-yl)-2-(1,1-difluoroethyl)-5-methyl-[1,2,4]triazolo[1,5-a]pyrimidin-7-amine] | 3.1 to 6.3 (≈ 8.2 to 16.7 µM) | < 5.8 | IC50 (dog DHODH): > 100 µM; unbound Cmax at the ED90 lower than the IC50 on the hERG channel (hERG K+ channel): ~30 fold; Cmax at the ED90 in the SCID study, unbound concentration [11]: approximately 0.05 μM; PPB human (% bound) [6]: 96.7 % bound; PPB rat (% bound) [7]: 96.4 % bound; PPB mouse (% bound) [8]: 97.4 % bound; difference of IC50 P. vivax DHODH versus PfDHODH (PvDHODH [10]): 1.5–3 fold
Cc1cc(NC2CCc3cc(Br)ccc3C2)n2nc(C(C)(F)F)nc2n1 (centres unmarked) [Compound 12, 2-(1,1-Difluoroethyl)-N-(6-bromo-1,2,3,4-tetrahydronaphthalen-2-yl)-5-methyl-[1,2,4]triazolo[1,5-a]pyrimidin-7-amine] | 3.1 to 6.3 (≈ 7.34 to 14.9 µM) | < 5.8 | –
Cc1cc(NC2CCc3ccc(Br)cc3C2)n2nc(C(C)(F)F)nc2n1 (centres unmarked) [Compound 14, 2-(1,1-Difluoroethyl)-N-(7-bromo-1,2,3,4-tetrahydronaphthalen-2-yl)-5-methyl-[1,2,4]triazolo[1,5-a]pyrimidin-7-amine] | – | – | IC50 (hDHODH): > 100 µM
Cc1cc(NC2CCc3cc(F)c(F)cc3C2)n2nc(C(C)(F)F)nc2n1 (centres unmarked) [Compound 19, 2-(1,1-Difluoroethyl)-N-(6,7-difluoro-1,2,3,4-tetrahydronaphthalen-2-yl)-5-methyl-[1,2,4]triazolo[1,5-a]pyrimidin-7-amine] | – | 9.1 | –
Cc1cc(NC2CCc3cc(F)c(C(F)(F)F)cc3C2)n2nc(C(C)(F)F)nc2n1 (centres unmarked) [Compound 20, 2-(1,1-Difluoroethyl)-N-(6-fluoro-7-(trifluoromethyl)-1,2,3,4-tetrahydronaphthalen-2-yl)-5-methyl-[1,2,4]triazolo[1,5-a]pyrimidin-7-amine] | 3.1 to 6.3 (≈ 7.22 to 14.7 µM) | < 5.8 | –
Cc1cc(NC2CCc3cc(C(F)(F)F)c(F)cc3C2)n2nc(C(C)(F)F)nc2n1 (centres unmarked) [Compound 21, 2-(1,1-Difluoroethyl)-N-(7-fluoro-6-(trifluoromethyl)-1,2,3,4-tetrahydro-naphthalen-2-yl)-5-methyl-[1,2,4]triazolo[1,5-a]pyrimidin-7-amine] | 1.6 to 3.1 (≈ 3.73 to 7.22 µM) | < 5.8 | –
Cc1cc(NC2Cc3c(C)ccc(C)c3C2)n2nc(C(C)(F)F)nc2n1 [Compound 32, N-(4,7-Dimethyl-2,3-dihydro-1H-inden-2-yl)-2-(1,1-difluoroethyl)-5-methyl-[1,2,4]triazolo[1,5-a]pyrimidin-7-amine] | 6.3 to 12.5 (≈ 17.6 to 35 µM) | 138 | –
Cc1cc(NC2Cc3cc(F)c(F)cc3C2)n2nc(C(C)(F)F)nc2n1 [Compound 35, N-(5,6-Difluoro-2,3-dihydro-1H-inden-2-yl)-2-(1,1-difluoroethyl)-5-methyl-[1,2,4]triazolo[1,5-a]pyrimidin-7-amine] | 6.3 to 12.5 (≈ 17.2 to 34.2 µM) | < 5.8 | IC50 (dog DHODH): > 100 µM; PPB human (% bound) [6]: 93.4 % bound; PPB rat (% bound) [7]: 94.2 % bound; PPB mouse (% bound) [8]: 95.3 % bound; ED90 ([9]; oral QD for 4 days): > 30 mg/kg; AUCED90 [9]: ∼137 μM·h/day; difference of IC50 P. vivax DHODH versus PfDHODH (PvDHODH [10]): 7 fold

Further lines, with some results ahead:

solubility kinetic at 30 min [4] [µg/mL] | CLint scaled at 1 μM [5] [mL/min/kg] | SMILES | also measured
6.3 to 12.5 (≈ 17.4 to 34.6 µM) | 12 | Cc1cc(NC2CCc3cc(F)ccc3C2)n2nc(C(C)(F)F)nc2n1 (centres unmarked) [Compound 6, 2-(1,1-Difluoroethyl)-N-(6-fluoro-1,2,3,4-tetrahydronaphthalen-2-yl)-5-methyl-[1,2,4]triazolo[1,5-a]pyrimidin-7-amine] | –
12.5 to 25 (≈ 33.5 to 67 µM) | 15 | COc1ccc2c(c1)CC(Nc1cc(C)nc3nc(C(C)(F)F)nn13)CC2 (centres unmarked) [Compound 16, 2-(1,1-Difluoroethyl)-N-(7-methoxy-1,2,3,4-tetrahydronaphthal-en-2-yl)-5-methyl-[1,2,4]triazolo[1,5-a]pyrimidin-7-amine] | –
1.6 to 3.1 (≈ 4.19 to 8.12 µM) | 7.4 | Cc1cc(NC2CCc3ccc(Cl)cc3C2)n2nc(C(F)(F)F)nc2n1 (centres unmarked) [Compound 24, N-(7-Chloro-1,2,3,4-tetrahydronaphthalen-2-yl)-5-methyl-2-(trifluoromethyl)-[1,2,4]triazolo[1,5-a]pyrimidin-7-amine] | –
25 to 50 (≈ 75.9 to 152 µM) | 20 | Cc1cc(NC2Cc3ccccc3C2)n2nc(C(C)(F)F)nc2n1 [Compound 26, 2-(1,1-Difluoroethyl)-N-(2,3-dihydro-1H-inden-2-yl)-5-methyl[1,2,4]triazolo[1,5-a]pyrim-idin-7-amine] | –
6.3 to 12.5 (≈ 17.3 to 34.4 µM) | 8.2 | Cc1cc(NC2Cc3ccc(Cl)cc3C2)n2nc(C(C)(F)F)nc2n1 (centres unmarked) [Compound 28, N-(5-Chloro-2,3-dihydro-1H-inden-2-yl)-2-(1,1-difluoroethyl)-5-methyl-[1,2,4]triazolo[1,5-a]pyrimidin-7-amine] | –
6.3 to 12.5 (≈ 17.2 to 34.2 µM) | 27 | Cc1cc(NC2Cc3c(F)ccc(F)c3C2)n2nc(C(C)(F)F)nc2n1 [Compound 33, N-(4,7-Difluoro-2,3-dihydro-1H-inden-2-yl)-2-(1,1-difluoroethyl)-5-methyl-[1,2,4]triazolo[1,5-a]pyrimidin-7-amine] | –
12.5 to 25 (≈ 36 to 72 µM) | 9.1 | Cc1cc(NC2Cc3cccc(F)c3C2)n2nc(C(C)(F)F)nc2n1 (centres unmarked) [Compound 34, 2-(1,1-Difluoroethyl)-N-(4-fluoro-2,3-dihydro-1H-inden-2-yl)-5-methyl-[1,2,4]triazolo[1,5-a]pyrimidin-7-amine] | –
6.3 to 12.5 (≈ 15.9 to 31.5 µM) | 25 | Cc1cc(NC2Cc3cccc(C(F)(F)F)c3C2)n2nc(C(C)(F)F)nc2n1 (centres unmarked) [Compound 36, 2-(1,1-Difluoroethyl)-5-methyl-N-(4-(trifluoromethyl)-2,3-dihydro-1H-inden-2-yl)-[1,2,4]triazolo[1,5-a]pyrimidin-7-amine] | –
